Experiments:
[1] = system: treatment-naïve HIV-1-infected patients; test: Continuous Holter 12-lead ECG; type: in vivo, human; conditions: modified saquinavir/ritonavir regimen
HIV-positive patients = conditions: saquinavir monotherapy, 84 patients; cited from earlier work
[2] = system: hERG channels heterologously expressed in HEK293 cells; conditions: cited from earlier work

CC(C)(C)NC(=O)[C@@H]1C[C@@H]2CCCC[C@@H]2CN1C[C@@H](O)[C@H](Cc1ccccc1)NC(=O)[C@H](CC(N)=O)NC(=O)c1ccc2ccccc2n1 [Saquinavir, saquinavir]
Correlation between maximum ∆QTcFdense and C max of saquinavir [1]: No strong correlation
Clinical EC50 value, C min (HIV-positive patients): 0.05 µg/mL
Blockage of hERG channels ([2]; hERG heterologously expressed in HEK293 cells): dose-dependent blockage
Effect on hERG trafficking ([2]; in vitro): inhibitory effects

From PMC4359187 (Drugs in R&D, 2015)
